Laboratory results published in patent US8435980B2 (AbbVie Inc., priority 2009, dated 2013).

Biological target: T1, Cdc7 (BEV coexpressed huCDC7/DBF4) (Homo sapiens, UniProt O00311)
T1 construct: made in house; host or cells: BEV (baculovirus expression vector) co-expression; insect cells are implied but no cell line is named
Test: Cdc7 enzyme inhibition assay ([33P]ATP, biotinylated peptide substrate, FlashPlate)
Type: biochemical
Conditions: Table 3; enzyme inhibition data (Ki)
Procedure: Cdc7 (BEV coexpressed huCDC7/DBF4) is prepared internally. Cdc7 assays are conducted as follows with final concentrations as listed. […] Reactions are quenched after 1 hr by the addition of 90 μL stop buffer (50 mM EDTA, 2M NaCl). […] (Ki) for exemplary compounds.

T1 sequence (O00311 whole entry): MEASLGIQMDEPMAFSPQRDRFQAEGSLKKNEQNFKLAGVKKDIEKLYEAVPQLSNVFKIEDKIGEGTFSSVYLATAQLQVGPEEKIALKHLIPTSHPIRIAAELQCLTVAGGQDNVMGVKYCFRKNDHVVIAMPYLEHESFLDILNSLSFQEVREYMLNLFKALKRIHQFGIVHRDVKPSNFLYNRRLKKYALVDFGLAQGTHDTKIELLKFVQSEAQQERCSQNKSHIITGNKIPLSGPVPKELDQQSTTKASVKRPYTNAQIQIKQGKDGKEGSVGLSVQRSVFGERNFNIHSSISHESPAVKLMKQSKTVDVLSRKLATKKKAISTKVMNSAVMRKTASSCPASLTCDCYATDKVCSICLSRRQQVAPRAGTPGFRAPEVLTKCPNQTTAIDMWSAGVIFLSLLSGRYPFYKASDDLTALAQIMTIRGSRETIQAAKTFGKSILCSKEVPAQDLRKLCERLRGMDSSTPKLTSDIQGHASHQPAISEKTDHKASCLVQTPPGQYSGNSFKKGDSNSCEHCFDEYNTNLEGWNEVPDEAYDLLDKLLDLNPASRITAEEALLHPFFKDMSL
T1 sequence (Q9UBU7 whole entry partner): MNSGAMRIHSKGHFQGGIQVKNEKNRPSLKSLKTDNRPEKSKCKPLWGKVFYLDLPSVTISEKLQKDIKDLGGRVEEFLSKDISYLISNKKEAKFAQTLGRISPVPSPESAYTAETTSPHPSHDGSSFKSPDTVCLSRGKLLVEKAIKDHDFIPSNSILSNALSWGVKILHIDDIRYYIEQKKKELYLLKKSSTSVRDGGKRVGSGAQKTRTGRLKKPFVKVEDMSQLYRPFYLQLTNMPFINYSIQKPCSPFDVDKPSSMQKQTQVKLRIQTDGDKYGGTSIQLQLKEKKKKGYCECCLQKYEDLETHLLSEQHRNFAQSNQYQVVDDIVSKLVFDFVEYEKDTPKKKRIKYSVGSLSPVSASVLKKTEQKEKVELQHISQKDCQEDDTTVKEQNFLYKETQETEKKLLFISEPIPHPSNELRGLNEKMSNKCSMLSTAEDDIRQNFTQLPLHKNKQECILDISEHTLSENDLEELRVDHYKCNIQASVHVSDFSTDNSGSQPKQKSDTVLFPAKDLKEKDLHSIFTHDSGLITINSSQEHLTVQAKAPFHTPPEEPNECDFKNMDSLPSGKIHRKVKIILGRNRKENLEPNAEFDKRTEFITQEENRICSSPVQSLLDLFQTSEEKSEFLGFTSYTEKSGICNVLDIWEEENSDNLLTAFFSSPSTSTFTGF

`CCCN1CCC(C(=O)NC2CCCC(Nc3cc(-c4c[nH]c5ncccc45)cc(Cl)n3)C2)CC1` (stereo not drawn) [Example 70, N-(3-{[6-chloro-4-(1H-pyrrolo[2,3-b]pyridin-3-yl)pyridin-2-yl]amino}cyclohexyl)-1-propylpiperidine-4-carboxamide] and `CCNC(=O)NC1CCCC(Nc2cc(-c3c[nH]c4ncccc34)cc(Cl)n2)C1` (stereo not drawn) [Example 79, 1-(3-{[6-chloro-4-(1H-pyrrolo[2,3-b]pyridin-3-yl)pyridin-2-yl]amino}cyclohexyl)-3-ethylurea] cannot be ordered by Ki: under 0.01 µM for the first, under 0.01 µM for the second.

`O=C(NC1CCCC(Nc2cc(-c3c[nH]c4ncccc34)cc(Cl)n2)C1)c1cc[nH]n1` (stereo not drawn) [Example 71, N-(3-{[6-chloro-4-(1H-pyrrolo[2,3-b]pyridin-3-yl)pyridin-2-yl]amino}cyclohexyl)-1H-pyrazole-3-carboxamide] and `Clc1cc(-c2c[nH]c3ncccc23)cc(NC2CCCC(NCC3CC3)C2)n1` (stereo not drawn) [Example 103, N-[6-chloro-4-(1H-pyrrolo[2,3-b]pyridin-3-yl)pyridin-2-yl]-N′-(cyclopropylmethyl)cyclohexane-1,3-diamine] cannot be ordered by Ki: under 0.01 µM for the first, under 0.01 µM for the second.

`Clc1cc(-c2c[nH]c3ncccc23)cc(NC2CCCC(NCC3CCCNC3)C2)n1` (stereo not drawn) [Example 72, N-[6-chloro-4-(1H-pyrrolo[2,3-b]pyridin-3-yl)pyridin-2-yl]-N′-(piperidin-3-ylmethyl)cyclohexane-1,3-diamine] and `Clc1cc(-c2c[nH]c3ncccc23)cc(N[C@H]2CC[C@H](NCC3CC3)CC2)n1` [Example 109, trans-N-[6-chloro-4-(1H-pyrrolo[2,3-b]pyridin-3-yl)pyridin-2-yl]-N′-(cyclopropylmethyl)cyclohexane-1,4-diamine] cannot be ordered by Ki: under 0.01 µM for the first, under 0.01 µM for the second.

`O=C(CNC(=O)c1ccccc1)NC1CCCC(Nc2cc(-c3c[nH]c4ncccc34)cc(Cl)n2)C1` (stereo not drawn) [Example 73, N-{2-[(3-{[6-chloro-4-(1H-pyrrolo[2,3-b]pyridin-3-yl)pyridin-2-yl]-amino}cyclohexyl)amino]-2-oxoethyl}benzamide] and `O=C(Nc1cc(-c2c[nH]c3ncccc23)cc(Cl)n1)c1ccccc1` [Example 86, N-[6-chloro-4-(1H-pyrrolo[2,3-b]pyridin-3-yl)pyridin-2-yl]benzamide] cannot be ordered by Ki: under 0.01 µM for the first, under 0.01 µM for the second.

`O=S(=O)(NC1CCCC(Nc2cc(-c3c[nH]c4ncccc34)cc(Cl)n2)C1)C1CC1` (stereo not drawn) [Example 76, N-(3-{[6-chloro-4-(1H-pyrrolo[2,3-b]pyridin-3-yl)pyridin-2-yl]amino}cyclohexyl)cyclopropanesulfonamide] and `CCCS(=O)(=O)NC1CCCC(Nc2cc(-c3c[nH]c4ncccc34)cc(Cl)n2)C1` (stereo not drawn) [Example 77, N-(3-{[6-chloro-4-(1H-pyrrolo[2,3-b]pyridin-3-yl)pyridin-2-yl]amino}cyclohexyl)propane-1-sulfonamide] cannot be ordered by Ki: under 0.01 µM for the first, under 0.01 µM for the second.

`Cc1ccc(S(=O)(=O)NC2CCCC(Nc3cc(-c4c[nH]c5ncccc45)cc(Cl)n3)C2)cc1` (stereo not drawn) [Example 78, N-(3-{[6-chloro-4-(1H-pyrrolo[2,3-b]pyridin-3-yl)pyridin-2-yl]amino}cyclohexyl)-4-methylbenzenesulfonamide] and `O=S(=O)(NC1CCCC(Nc2cc(-c3c[nH]c4ncccc34)cc(Cl)n2)C1)c1cccs1` (stereo not drawn) [Example 83, N-(3-{[6-chloro-4-(1H-pyrrolo[2,3-b]pyridin-3-yl)pyridin-2-yl]amino}cyclohexyl)thiophene-2-sulfonamide] cannot be ordered by Ki: under 0.01 µM for the first, under 0.01 µM for the second.

`O=C(NC1CCCC1)NC1CCCC(Nc2cc(-c3c[nH]c4ncccc34)cc(Cl)n2)C1` (stereo not drawn) [Example 80, 1-(3-{[6-chloro-4-(1H-pyrrolo[2,3-b]pyridin-3-yl)pyridin-2-yl]amino}cyclohexyl)-3-cyclopentylurea] and `CNC(=O)N[C@H]1CC[C@H](Nc2cc(-c3c[nH]c4ncccc34)cc(Cl)n2)CC1` [Example 99, 1-(trans-4-{[6-chloro-4-(1H-pyrrolo[2,3-b]pyridin-3-yl)pyridin-2-yl]amino}cyclohexyl)-3-methylurea] cannot be ordered by Ki: under 0.01 µM for the first, under 0.01 µM for the second.

First: CC(C)(CNc1cc(-c2c[nH]c3ncccc23)cc(Cl)n1)CNS(=O)(=O)c1cccnc1 [Example 81, N-(3-{[6-chloro-4-(1H-pyrrolo[2,3-b]pyridin-3-yl)pyridin-2-yl]amino}-2,2-dimethylpropyl)pyridine-3-sulfonamide]
Second: O=S(=O)(NCCNc1cc(-c2c[nH]c3ncccc23)cc(Cl)n1)c1cccnc1 [Example 90, N-(2-{[6-chloro-4-(1H-pyrrolo[2,3-b]pyridin-3-yl)pyridin-2-yl]amino}ethyl)pyridine-3-sulfonamide]
The Ki of the first is higher: 0.01 to 0.1 µM for the first, under 0.01 µM for the second. The second binds more tightly here.

`CC(C)(CNc1cc(-c2c[nH]c3ncccc23)cc(Cl)n1)CNS(=O)(=O)C1CC1` [Example 82, N-(3-{[6-chloro-4-(1H-pyrrolo[2,3-b]pyridin-3-yl)pyridin-2-yl]amino}-2,2-dimethylpropyl)cyclopropanesulfonamide] and `O=S(=O)(NCCNc1cc(-c2c[nH]c3ncccc23)cc(Cl)n1)C1CC1` [Example 89, N-(2-{[6-chloro-4-(1H-pyrrolo[2,3-b]pyridin-3-yl)pyridin-2-yl]amino}ethyl)cyclopropanesulfonamide] cannot be ordered by Ki: under 0.01 µM for the first, under 0.01 µM for the second.

`CCCCC(=O)Nc1cc(-c2c[nH]c3ncccc23)cc(Cl)n1` [Example 84, N-[6-chloro-4-(1H-pyrrolo[2,3-b]pyridin-3-yl)pyridin-2-yl]pentanamide] and `CC(=O)NCC(C)(C)CNc1cc(-c2c[nH]c3ncccc23)cc(Cl)n1` [Example 113, N-(3-{[6-chloro-4-(1H-pyrrolo[2,3-b]pyridin-3-yl)pyridin-2-yl]amino}-2,2-dimethylpropyl)acetamide] cannot be ordered by Ki: under 0.01 µM for the first, under 0.01 µM for the second.

`O=C(Nc1cc(-c2c[nH]c3ncccc23)cc(Cl)n1)C1CCCCC1` [Example 85, N-[6-chloro-4-(1H-pyrrolo[2,3-b]pyridin-3-yl)pyridin-2-yl]cyclohexanecarboxamide] and `O=C(Nc1cc(-c2c[nH]c3ncccc23)cc(Cl)n1)C1CCNCC1` [Example 112, N-[6-chloro-4-(1H-pyrrolo[2,3-b]pyridin-3-yl)pyridin-2-yl]piperidine-4-carboxamide] cannot be ordered by Ki: under 0.01 µM for the first, under 0.01 µM for the second.

`Clc1cc(-c2c[nH]c3ncccc23)cc(NC2CCC2)n1` [Example 92, 6-chloro-N-cyclobutyl-4-(1H-pyrrolo[2,3-b]pyridin-3-yl)pyridin-2-amine] and `Clc1cc(-c2c[nH]c3ncccc23)cc(NC2CCCN(C3CCC3)C2)n1` (stereo not drawn) [Example 104, 6-chloro-N-(1-cyclobutylpiperidin-3-yl)-4-(1H-pyrrolo[2,3-b]pyridin-3-yl)pyridin-2-amine] cannot be ordered by Ki: under 0.01 µM for the first, under 0.01 µM for the second.

`CN(C)[C@H]1CC[C@H](Nc2cc(-c3c[nH]c4ncccc34)cc(Cl)n2)CC1` [Example 93, trans-N′-[6-chloro-4-(1H-pyrrolo[2,3-b]pyridin-3-yl)pyridin-2-yl]-N,N-dimethylcyclohexane-1,4-diamine] and `Clc1cc(-c2c[nH]c3ncccc23)cc(N[C@H]2CC[C@H](NC3CCC3)CC2)n1` [Example 105, trans-N-[6-chloro-4-(1H-pyrrolo[2,3-b]pyridin-3-yl)pyridin-2-yl]-N′-cyclobutylcyclohexane-1,4-diamine] cannot be ordered by Ki: under 0.01 µM for the first, under 0.01 µM for the second.

`CCN1CCCC(CNc2cc(-c3c[nH]c4ncccc34)cc(Cl)n2)C1` (stereo not drawn) [Example 94, 6-chloro-N-[(1-ethylpiperidin-3-yl)methyl]-4-(1H-pyrrolo[2,3-b]pyridin-3-yl)pyridin-2-amine] and `CC(=O)N1CCCC(CNc2cc(-c3c[nH]c4ncccc34)cc(Cl)n2)C1` (stereo not drawn) [Example 100, 1-[3-({[6-chloro-4-(1H-pyrrolo[2,3-b]pyridin-3-yl)pyridin-2-yl]amino}methyl)piperidin-1-yl]ethanone] cannot be ordered by Ki: under 0.01 µM for the first, under 0.01 µM for the second.

`Clc1cc(-c2c[nH]c3ncccc23)cc(NCC2CCCN(C3CCC3)C2)n1` (stereo not drawn) [Example 95, 6-chloro-N-[(1-cyclobutylpiperidin-3-yl)methyl]-4-(1H-pyrrolo[2,3-b]pyridin-3-yl)pyridin-2-amine] and `O=S(=O)(C1CC1)N1CCCC(CNc2cc(-c3c[nH]c4ncccc34)cc(Cl)n2)C1` (stereo not drawn) [Example 101, 6-chloro-N-{[1-(cyclopropylsulfonyl)piperidin-3-yl]methyl}-4-(1H-pyrrolo[2,3-b]pyridin-3-yl)pyridin-2-amine] cannot be ordered by Ki: under 0.01 µM for the first, under 0.01 µM for the second.

`Clc1cc(-c2c[nH]c3ncccc23)cc(NCC2CCCN(Cc3cccnc3)C2)n1` (stereo not drawn) [Example 96, 6-chloro-N-{[1-(pyridin-3-ylmethyl)piperidin-3-yl]methyl}-4-(1H-pyrrolo[2,3-b]pyridin-3-yl)pyridin-2-amine] and `CCNC(=O)N1CCCC(CNc2cc(-c3c[nH]c4ncccc34)cc(Cl)n2)C1` (stereo not drawn) [Example 98, 3-((6-chloro-4-(1H-pyrrolo[2,3-b]pyridin-3-yl)pyridin-2-ylamino)methyl)-N-ethylpiperidine-1-carboxamide] cannot be ordered by Ki: under 0.01 µM for the first, under 0.01 µM for the second.

`CS(=O)(=O)N1CCCC(CNc2cc(-c3c[nH]c4ncccc34)cc(Cl)n2)C1` (stereo not drawn) [Example 97, 6-chloro-N-((1-(methylsulfonyl)piperidin-3-yl)methyl)-4-(1H-pyrrolo[2,3-b]pyridin-3-yl)pyridin-2-amine] and `O=C(C1CC1)N1CCCC(Nc2cc(-c3c[nH]c4ncccc34)cc(Cl)n2)C1` (stereo not drawn) [Example 102, (3-{[6-chloro-4-(1H-pyrrolo[2,3-b]pyridin-3-yl)pyridin-2-yl]amino}piperidin-1-yl)(cyclopropyl)methanone] cannot be ordered by Ki: under 0.01 µM for the first, under 0.01 µM for the second.

`O=C(N[C@H]1CC[C@H](Nc2cc(-c3c[nH]c4ncccc34)cc(Cl)n2)CC1)[C@@H]1CCN1` [Example 106, (2S)—N-(trans-4-{[6-chloro-4-(1H-pyrrolo[2,3-b]pyridin-3-yl)pyridin-2-yl]amino}cyclohexyl)azetidine-2-carboxamide] and `O=C(Nc1cc(-c2c[nH]c3ncccc23)cc(Cl)n1)c1cccnc1` [Example 107, N-[6-chloro-4-(1H-pyrrolo[2,3-b]pyridin-3-yl)pyridin-2-yl]pyridine-3-carboxamide] cannot be ordered by Ki: under 0.01 µM for the first, under 0.01 µM for the second.
